Test results as given in patent publication US6919457B2, “3-(imidazolyl)-2-aminopropanoic acids” (Pfizer, Inc., priority 2002, dated 2005).

Tests used:
TAFIa = target: T1, TAFIa (Homo sapiens, UniProt Q96IY4); assay: Assay for TAFIa inhibition (Ki determination, FAAL substrate hydrolysis); type: biochemical; conditions: calculated from IC50 using the Cheng-Prusoff equation, activated human TAFI, 24° C.
T1 sequence (Q96IY4 115-423): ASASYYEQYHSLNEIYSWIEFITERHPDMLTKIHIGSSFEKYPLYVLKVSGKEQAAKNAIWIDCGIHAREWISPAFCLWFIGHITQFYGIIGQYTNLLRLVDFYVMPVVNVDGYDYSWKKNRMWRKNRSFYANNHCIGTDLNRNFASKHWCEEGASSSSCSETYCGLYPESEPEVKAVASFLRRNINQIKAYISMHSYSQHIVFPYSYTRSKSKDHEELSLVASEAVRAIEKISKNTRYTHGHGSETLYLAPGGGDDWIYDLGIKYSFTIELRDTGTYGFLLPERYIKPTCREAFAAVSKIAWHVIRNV
Experimental: The compounds of the present invention may be tested using the following assay, which is based on that disclosed in Boffa et al., J. Biol. Chem. 1998, 273, 2127. The compounds are incubated with activated TAFI and a standard substrate for TAFIa, the rate of hydrolysis of the substrate is determined and compared to the rate of hydrolysis in the absence of the compounds, and the amount of inhibition expressed in terms of Ki.
Human TAFI (recombinant or purified) was activated by incubating 20 μl of stock solution (360 μg/ml) with 10 μl of human thrombin (10 NIH units/ml), 10 μl of rabbit thrombomodulin (30 μg/ml), 6 μl calcium chloride (50 mM) in 50 μL of 20 mM HEPES (N-[2-hydroxyethyl]piperazine-N-[2-ethanesulfonic acid]) buffer containing 150 mM sodium chloride and 0.01% TWEEN 80 (polyoxyethylene-sorbitan monooleate) pH 7.6 for 20 minutes at 22° C. At the end of the incubation period, thrombin was neutralised by the addition of 10 μL of PPACK (D-Phe-Pro-Arg chloromethyl ketone) (100 nM). The resulting TAFIa solution was stored on ice for 5 minutes and finally diluted with 175 μl of HEPES buffer.
ii) Ki Determination (TAFIa)
(§1) A number of different dilutions of the test compound in water were made up. To 20 μl of each dilution was added 150 μl of HEPES buffer and 10 μl of TAFIa, which was then pre-incubated for 15 minutes at 24° C. To each dilution was then added 20 μl furylacryloyl-alanyl-lysine (FAAL) at a standard concentration. Substrate turnover was measured by reading the absorbance of the reaction mixture at 330 nm every 15 seconds for 30 minutes. The reaction was performed at 24° C. and samples were mixed for 3 seconds prior to each absorbance reading.
(§2) A graph of % inhibition against test compound concentration was then plotted; from which was calculated the IC50 value. The Ki value was then calculated using the Cheng-Prusoff equation.
Two controls, positive and negative, were used to check the accuracy of the results in each case. For the first control, the assay was performed as above, but with 20 μl of water rather than a dilution of the test compound. […] For the second control, the assay was performed as above, but with an effective amount of a non specific carboxypeptidase inhibitor rather than a dilution of the test compound.

human CPN = target: T2, human CPN (Homo sapiens, UniProt P15169); assay: CPN Ki determination (TAFIa assay with human CPN substituted for TAFIa); type: biochemical; conditions: for Ki: human CPN substituted for TAFIa, calculated Ki; for Selectivity: selectivity for TAFIa over CPN, comparing Ki for CPN with Ki for TAFIa
T2 sequence (P15169 21-458): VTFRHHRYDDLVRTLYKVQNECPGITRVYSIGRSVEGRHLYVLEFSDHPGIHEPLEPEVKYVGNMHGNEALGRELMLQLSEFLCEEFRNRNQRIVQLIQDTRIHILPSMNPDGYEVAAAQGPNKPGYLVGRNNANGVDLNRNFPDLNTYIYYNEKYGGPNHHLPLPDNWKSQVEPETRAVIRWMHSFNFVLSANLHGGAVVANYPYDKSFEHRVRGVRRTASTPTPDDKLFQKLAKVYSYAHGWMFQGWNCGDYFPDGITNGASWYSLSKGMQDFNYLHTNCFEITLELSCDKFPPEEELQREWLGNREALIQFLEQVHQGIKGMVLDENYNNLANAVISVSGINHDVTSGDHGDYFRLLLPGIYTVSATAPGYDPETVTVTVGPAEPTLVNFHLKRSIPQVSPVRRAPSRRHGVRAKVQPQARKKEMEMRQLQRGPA
T2 sequence (P22792 22-545 partner): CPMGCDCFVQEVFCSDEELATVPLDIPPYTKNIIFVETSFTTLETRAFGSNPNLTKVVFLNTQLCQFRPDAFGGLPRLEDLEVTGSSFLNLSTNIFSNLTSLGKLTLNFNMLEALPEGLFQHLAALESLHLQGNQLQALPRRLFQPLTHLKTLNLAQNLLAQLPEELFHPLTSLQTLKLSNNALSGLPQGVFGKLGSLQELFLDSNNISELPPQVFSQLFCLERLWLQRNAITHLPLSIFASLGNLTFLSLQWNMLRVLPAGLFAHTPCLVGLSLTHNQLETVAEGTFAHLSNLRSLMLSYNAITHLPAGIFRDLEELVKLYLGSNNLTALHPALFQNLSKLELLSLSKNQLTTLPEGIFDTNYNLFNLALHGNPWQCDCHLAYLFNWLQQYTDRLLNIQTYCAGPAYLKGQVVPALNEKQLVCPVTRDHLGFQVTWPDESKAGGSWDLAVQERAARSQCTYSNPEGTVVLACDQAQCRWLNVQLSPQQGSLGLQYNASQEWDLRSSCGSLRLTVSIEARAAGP
Experimental: as §1, §2
The selectivity of the compounds of the present invention for TAFIa over CPN was determined by calculating the Ki of the compounds of the present invention for CPN, then comparing it to the Ki for TAFIa. The Ki was calculated using the assay for the calculation of TAFIa Ki, but substituting 10 μl of human CPN for 10 μl of TAFIa.

Structure (SMILES)	Ki (TAFIa)	Ki (human CPN)	Selectivity (human CPN)
N[C@H]1CCN([C@@H](Cc2c[nH]cn2)C(=O)O)C1 [Example 2, (+)-(2S)-2-[(3S)-3-Aminopyrrolidinyl]-3-(1H-imidazol-4-yl)propanoic Acid]	0.06 µM		
CCCn1cnc(C[C@@H](C(=O)O)N2CC[C@H](N)C2)c1 [Example 4, (+)-(2S)-2-[(3S)-3-Aminopyrrolidinyl]-3-(1-propyl-1H-imidazol-4-yl)propanoic Acid]	0.022 µM	> 10 µM	>450
N[C@H]1CCN([C@@H](Cc2cn(-c3ccccc3)cn2)C(=O)O)C1 [Example 9, (+)-(2S)-2-[(3S)-3-Aminopyrrolidinyl]-3-[1-phenyl-1H-imidazol-4-yl]propanoic Acid]	0.008 µM		
N[C@H]1CCN([C@@H](Cc2cn(CCc3ccccc3)cn2)C(=O)O)C1 [Example 8, (+)-(2S)-2-[(3S)-3-Aminopyrrolidinyl]-3-[1-(2-phenylethyl)-1H-imidazol-4-yl]propanoic Acid]	0.01 µM		
N[C@H]1CCN([C@@H](Cc2cn(CCC3CCCCC3)cn2)C(=O)O)C1 [Example 6, (+)-(2S)-2-[(3S)-3-Aminopyrrolidinyl]-3-[1-(2-cyclohexylethyl)-1H-imidazol-4-yl]propanoic Acid]	0.007 µM	> 10 µM	>1400
